Test system: behavior induced by spinal intrathecal injection of FeCl2 in mice
Test: Effect of drugs on the change of the behavior induced by spinal intrathecal injection of FeCl2 in mice (Experiment 1)
Format: in vivo, mice (male Slc: ICR)
Conditions: oral, 30 minutes prior to ferrous chloride injection; for % inhibition: 100 mg/kg, calculated from mean scores vs saline; for Mean Score Administration of Test Compound of 100 mg/kg: behavioral score 0 (normal) to 5 (death), 10 mice per group
Method: Effect of drugs on the change of the behavior induced by spinal intrathecal injection of FeCl2 in mice
Male Slc: ICR mice (5 weeks) (10 mice per group) were used. Saline (5 μl/mouse) containing 50 mM FeCl2 was injected into the subarachnoid space between the 6th lumbar segment and the 1st sacral and scored as follows.
Percent inhibitions were calculated based on the scores evaluated above. The test compounds were orally administered 30 minutes prior no ferrous chloride injection. […]

SMILES: Cc1c(C)c2c(c(C)c1N)CC(C)(Cc1ccccc1)O2 (stereo not shown) [Example 1, 5-Amino-2-benzyl-2,4,6,7-tetramethyl-2,3-dihydrobenzofuran]
- % inhibition: 73.9%
- Mean Score Administration of Test Compound of 100 mg/kg: 1.2

SMILES: Cc1c(C)c2c(c(C)c1N)CC(C)(C)O2 [Example 103, 5-Amino-2,2,4,6,7-pentamethyl-2,3-dihydrobenzofuran]
- % inhibition: 98.0%
- Mean Score Administration of Test Compound of 100 mg/kg: 0.1

SMILES: Cc1c(C)c2c(c(C)c1N)CC(C)(CCc1ccc(F)cc1)O2 (stereo not shown) [Example 85, 5-Amino-2,4,6,7-tetramethyl-2-[2-(4-fluorophenyl)ethyl]-2,3-dihydrobenzofuran]
- % inhibition: 87.0%
- Mean Score Administration of Test Compound of 100 mg/kg: 0.6

SMILES: Cc1c(C)c2c(c(C)c1N)CC(C)(CCc1ccccc1)O2 (stereo not shown) [Example 84, 5-Amino-2,4,6,7-tetramethyl-2-(2-phenylethyl)-2,3-dihydrobenzofuran]
- % inhibition: 89.1%
- Mean Score Administration of Test Compound of 100 mg/kg: 0.5

SMILES: CCNc1c(C)c(C)c2c(c1C)CC(C)(CCc1ccc(F)cc1)O2 (stereo not shown) [Example 47, 5-Ethylamino-2-[2-(4-fluorophenyl)ethyl]-2,4,6,7-tetramethyl-2,3-dihydrobenzofuran]
- % inhibition: 79.6%
- Mean Score Administration of Test Compound of 100 mg/kg: 1.0
